This is an account of results in patent US7915291B2, “Hepatitis C virus inhibitors” (Bristol-Myers Squibb Company, priority 2002, dated 2011).

Like-named read-outs stand apart in the source and are kept apart here.

Assay [1] deals with HCV NS3/4A protease complex, BMS strain (UniProt P27958, C1454S/C1711G, species not given/STRAIN_BMS). The experiment in a line: Recombinant HCV NS3/4A protease complex FRET peptide assay (BMS strain). In kind it is biochemical, HCV genotype 1a. An outline of the steps:
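Percent inhibition taken from the linear-range fluorescence slope relative to uninhibited control, read kinetically for about 15 min at 25° C. Enzyme (2-3 nM, BMS NS3/4A complex, lysine-tailed, Ni-NTA purified) met compound for 1 min before 2 μM FRET depsipeptide substrate started cleavage.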

Assay [2] addresses T1, porcine pancreatic elastase (PPE) (Sus scrofa, UniProt P00772).
T1 construct: purchased Sigma
The experiment in a line: Specificity assay, PPE. In kind it is biochemical. To be noted: 2 hr pre-incubation. The protocol: The specificities of compounds of the present invention were determined against a variety of serine proteases: human leukocyte elastase (HLE), porcine pancreatic elastase (PPE) and human pancreatic chymotrypsin and one cysteine protease: human liver cathepsin B. In all cases a 96-well plate format protocol using colorimetric p -nitroaniline (pNA) substrate specific for each enzyme was used as described previously (Patent WO 00/09543) with some modifications to the serine protease assays. All enzymes were purchased from Sigma while the substrates were from Bachem.
Each assay included a 2 hr enzyme-inhibitor pre-incubation at RT followed by addition of substrate and hydrolysis to ˜30% conversion as measured on a Spectramax Pro microplate reader. Compound concentrations varied from 100 to 0.4 μM depending on their potency. […]
The percentage of inhibition was calculated using the formula: [1−((UVinh−UVblank)/(UVctl−UVblank))]×100 […]

T1 sequence (P00772 27-266): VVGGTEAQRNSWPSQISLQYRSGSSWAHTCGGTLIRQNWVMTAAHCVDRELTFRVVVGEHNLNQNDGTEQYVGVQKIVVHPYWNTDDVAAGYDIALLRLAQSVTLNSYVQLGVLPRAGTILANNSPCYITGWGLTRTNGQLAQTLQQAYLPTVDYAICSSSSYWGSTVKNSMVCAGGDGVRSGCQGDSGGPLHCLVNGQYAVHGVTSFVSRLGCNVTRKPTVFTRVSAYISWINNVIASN

For the molecule `C=C[C@@H]1C[C@]1(NC(=O)[C@@H]1C[C@@H](Oc2nc(C3CC3)cc3ccccc23)CN1C(=O)[C@@H](NC(=O)OC(C)(C)C)C(C)(C)C)C(=O)NS(=O)(=O)C1CC1` [Compound 34], the IC50 in assay [1] (BMS strain, read-out: IC50 against the NS3/4A BMS strain in the enzyme assay) was 23 nM; in assay [1] (NS3/4A BMS strain, read-out: IC50 range), less than 100 nM; in assay [2], more than 200000 nM.
